Source: patent US7589057B2, “Oil-in-water method for making alpha-2 agonist polymeric drug delivery systems” (Allergan, Inc., priority 2004, dated 2009)
Converted amounts (≈) assume the structure as drawn.

Experiments:
[1] = assay type: physicochemical
Description: (§1) FIGS. 2A, 2B, 2C, 2D, 2E, and 2F illustrate the chemical structure of bimatoprost (AGN 192024, FIG. 2A), 15β bimatoprost (FIG. 2B); 5,6-trans bimatoprost isomer (FIG. 2C); C1 acid of bimatoprost (FIG. 2D); triphenyphosphine oxide (TPPO; FIG. 2E); and 15-Keto bimatoprost (FIG. 2F). Bimatoprost is the active ingredient and the other chemicals are impurities that may be present. […] Bimatoprost is a non-ionizable compound.

[2] = Ionisability of bimatoprost; assay type: physicochemical
Description: as §1

[3] = Effects of gamma sterilization on the stability of bimatoprost; assay type: physicochemical
Method: The formula abbreviations correspond to compounds illustrated in FIGS. 2A-2F. High performance liquid chromatography was used to quantify bimatoprost and impurities present in the microparticles. Analytes were eluted from a Waters Symmetry® C18 reverse-phase column using a mobile phase composed of 72/18/10 (water/acetonitrile/methanol v/v/v) containing 0.03% (w/v) trifluoroacetic acid. UV detection was performed at 210 nm.

[4] = Solubility of bimatoprost in water; assay type: physicochemical; conditions: room temperature
Description: as §1

Question: Which results are given for `CCNC(=O)CCC/C=C\C[C@@H]1[C@@H](/C=C/[C@@H](O)CCc2ccccc2)[C@H](O)C[C@@H]1O` [Bimatoprost]?
Answer: partition coefficient Log P [1]: 2.4 plus or minus 0.1; ionisability [2]: non-ionizable; % wt/wt 5,6-trans ([3]; gamma sterilized): 0.1 % wt/wt; % wt/wt 15β ([3]; gamma sterilized): 0.1 % wt/wt; % wt/wt bimatoprost ([3]; gamma sterilized): 85.3 % wt/wt; % wt/wt, 15-keto ([3]; gamma sterilized): 2.3 % wt/wt; decrease of the amount of active bimatoprost by gamma sterilization ([3]; gamma sterilized vs none sterilized): about 10%; % wt/wt 5,6-trans ([3]; none sterilized): 0.1 % wt/wt; % wt/wt 15β ([3]; none sterilized): 0.2 % wt/wt; % wt/wt bimatoprost ([3]; none sterilized): 95.3 % wt/wt; % wt/wt, 15-keto ([3]; none sterilized): 1.0 % wt/wt; solubility [4]: 3200 µg/mL (≈ 7.7 mM)
